Assay results taken from patent publication US20090163508A1, “AMIDE COMPOUND” (TAKEDA PHARMACEUTICAL COMPANY LIMITED, priority 2007, published 2009).

Tested on: mouse
Test: Analgesic effect in acetic acid writhing test on mouse
Type: in vivo
Settings: po, 20 min, 10 mg/kg orally, 60 minutes before 0.6% acetic acid i.p., count over 20 minutes relative to the reference group
Method: A suspension of the test compound (10 mg/kg) was orally administered to a mouse. 60 minutes after the administration, a 0.6% aqueous acetic acid solution was intraperitoneally administered in an amount of 10 mL/kg. The mouse was accommodated in a special cage from immediately after the administration until 20 minutes after, and the writhing response was counted. The mean count number was compared relative to the reference group, so as to examine the difference (student's t-test), and the analgesic effect was evaluated.

SMILES	response vs control in vivo at 10 mg/kg
Cc1noc(NC(=O)N2CCN(c3ccnc(-c4cccc(F)c4F)n3)CC2)c1C [Example 5, 4-[2-(2,3-difluorophenyl)pyrimidin-4-yl]-N-(3,4-dimethylisoxazol-5-yl)piperazine-1-carboxamide]	42.2%
Cc1noc(NC(=O)N2CCN(c3cncc(-c4ccc(F)cc4F)n3)CC2)c1C [Example 14, 4-[6-(2,4-difluorophenyl)pyrazin-2-yl]-N-(3,4-dimethylisoxazol-5-yl)piperazine-1-carboxamide]	67.2%
O=C(Nc1cccnc1)N1CCN(c2nccc(-c3ccc(F)cc3F)n2)CC1 [Example 15, 4-[4-(2,4-difluorophenyl)pyrimidin-2-yl]-N-pyridin-3-ylpiperazine-1-carboxamide]	66.7%
O=C(Nc1cccnn1)N1CCN(c2nccc(-c3ccc(F)cc3F)n2)CC1 [Example 17, 4-[4-(2,4-difluorophenyl)pyrimidin-2-yl]-N-pyridazin-3-ylpiperazine-1-carboxamide]	56.9%
Cc1noc(NC(=O)N2CCN(c3cc(-c4ccc(F)cc4F)ncn3)CC2)c1C [Example 19, 4-[6-(2,4-difluorophenyl)pyrimidin-4-yl]-N-(3,4-dimethylisoxazol-5-yl)piperazine-1-carboxamide]	51.9%
O=C(Nc1cccnc1)N1CCN(c2nccc(-c3ccccc3)n2)CC1 [Example 77, 4-(4-phenylpyrimidin-2-yl)-N-pyridin-3-ylpiperazine-1-carboxamide]	46.8%
O=C(Nc1cccnn1)N1CCN(c2nccc(-c3ccccc3)n2)CC1 [Example 79, 4-(4-phenylpyrimidin-2-yl)-N-pyridazin-3-ylpiperazine-1-carboxamide]	38.9%
O=C(Nc1cccnn1)N1CCN(c2nccc(-c3ccc(F)c(F)c3)n2)CC1 [Example 110, 4-[4-(3,4-difluorophenyl)pyrimidin-2-yl]-N-pyridazin-3-ylpiperazin-1-carboxamide]	34.7%
